The results in this text go back to patent publication US8557833B2, “Aminopyrimidines useful as kinase inhibitors” (priority 2005, dated 2013).

For series [1], the target named is Aurora-1 (Aurora B) (Homo sapiens, UniProt Q96GD4). The series is described as follows: Aurora-1 (Aurora B) inhibition assay (radiometric). Type of series: biochemical. On the procedure: An assay buffer solution was prepared which consisted of 25 mM HEPES (pH 7.5), 10 mM MgCl2, 0.1% BSA and 10% glycerol. […] To 22 μL of the Aurora-B solution, in a 96-well plate, was added 2 μl of a compound stock solution in DMSO and the mixture allowed to equilibrate for 10 minutes at 25° C. The enzyme reaction was initiated by the addition of 16 μl stock [γ-^33P]-ATP solution (˜20 nCi/μL) prepared in assay buffer, to a final assay concentration of 800 μM. The reaction was stopped after 3 hours by the addition of 16 μL 500 mM phosphoric acid and the levels of ^33P incorporation into the peptide substrate were determined by the following method.
A phosphocellulose 96-well plate (Millipore, Cat no. MAPHNOB50) was pre-treated with 100 μL of a 100 mM phosphoric acid prior to the addition of the enzyme reaction mixture (40 μL). The solution was left to soak on to the phosphocellulose membrane for 30 minutes and the plate subsequently washed four times with 200 μL of a 100 mM phosphoric acid. […] Levels of non-enzyme catalyzed background radioactivity were determined by adding 16 μL of the 500 mM phosphoric acid to control wells, containing all assay components (which acts to denature the enzyme), prior to the addition of the [γ-^33P]-ATP solution. Levels of enzyme catalyzed ^33P incorporation were calculated by subtracting mean background counts from those measured at each inhibitor concentration. […] Ki values were calculated from initial rate data by non-linear regression using the Prism software package (Prism 3.0, Graphpad Software, San Diego, Calif.).

Series [2] can be described thus: Microsomal stability assay. Format: in vitro ADME. To be noted: 5 μM compound, 1 mg/mL liver microsome protein, 37° C., species not given. On the procedure:
Microsomal stability was monitored by generation of depletion-time profiles in microsomes from a range of species (male CD-1 mouse, male Sprague-Dawley rat, male Beagle dog, male Cynomolgus monkey and pooled mixed gender human). Compound spiking solutions were made up by diluting down the compound stock solution in DMSO (typically 10 mM) to give a solution in acetonitrile (0.5 mM). […].
The reaction was initiated by the addition (250 μL) of the pre-incubated RGS to the pre-incubated microsome/VRT/PB mixture (pre-incubation in both instances was for 10 minutes at 37° C.). Samples were incubated within Eppendorf vials (1.5 ml) on a heater shaker (DPC Micromix 5 (settings; form 20, amplitude 4) modified to be heated, to 37° C., by two plate heaters fixed to the deck and controlled by a Packard Manual Heater) attached to a Multiprobe II HT Ex automated liquid handler. The liquid handler was programmed (WinPREP software) to sample the microsomal incubation mixture after 0, 2, 10, 30 and 60 minutes of incubation and transfer an aliquot (100 μL) to a stop block (96-well block) containing 100 μL of chilled methanol. The % organic in the stop mixture was optimized for analysis by addition of appropriate volumes of aqueous/organic (typically 100 μl of 50:50 methanol:water).
Prior to analysis the stop block was placed on a shaker (DPC Micromix 5; 10 min, form 20, amplitude 5) to precipitate out proteins. The block was then centrifuged (Jouan GR412; 2000 rpm, 15 min, 4° C.). A sample aliquot (200 μL) was then transferred to an analysis block and the block was centrifuged again (Jouan GR412; 2000 rpm, 5 min, 4° C.) prior to being sent for analysis. Depletion profiles were determined by monitoring the disappearance of VRT by liquid chromatography-tandem mass spectrometry (LC-MS/MS). Samples were injected (20 μL; Agilent 1100 liquid chromatographic system equipped with autosampler) onto an analytical column. Mobile phase consisted of Water+0.05% (v/v) formic acid (A) and methanol+0.05% (v/v) formic acid (B).
Running a gradient method optimized for the compound of interest carried out the compound elution from analytical column. The total run time was 6 minutes with a flow rate of 0.35 mL/min. The entire column effluent entered the electrospray ionization source (positive mode) of a Micromass Quattro LC tandem mass spectrometer between 0.5 and 5.9 min of the run. The mass spectrometry was optimized for the compound of interest. All incubations were conducted in duplicate and results were expressed as % parent remaining at either 30 minutes or 60 minutes relative to 0 minutes sample.

Series [3] has as its target T1, FLT-3 (Homo sapiens, UniProt P36888).
T1 sequence (P36888 27-993): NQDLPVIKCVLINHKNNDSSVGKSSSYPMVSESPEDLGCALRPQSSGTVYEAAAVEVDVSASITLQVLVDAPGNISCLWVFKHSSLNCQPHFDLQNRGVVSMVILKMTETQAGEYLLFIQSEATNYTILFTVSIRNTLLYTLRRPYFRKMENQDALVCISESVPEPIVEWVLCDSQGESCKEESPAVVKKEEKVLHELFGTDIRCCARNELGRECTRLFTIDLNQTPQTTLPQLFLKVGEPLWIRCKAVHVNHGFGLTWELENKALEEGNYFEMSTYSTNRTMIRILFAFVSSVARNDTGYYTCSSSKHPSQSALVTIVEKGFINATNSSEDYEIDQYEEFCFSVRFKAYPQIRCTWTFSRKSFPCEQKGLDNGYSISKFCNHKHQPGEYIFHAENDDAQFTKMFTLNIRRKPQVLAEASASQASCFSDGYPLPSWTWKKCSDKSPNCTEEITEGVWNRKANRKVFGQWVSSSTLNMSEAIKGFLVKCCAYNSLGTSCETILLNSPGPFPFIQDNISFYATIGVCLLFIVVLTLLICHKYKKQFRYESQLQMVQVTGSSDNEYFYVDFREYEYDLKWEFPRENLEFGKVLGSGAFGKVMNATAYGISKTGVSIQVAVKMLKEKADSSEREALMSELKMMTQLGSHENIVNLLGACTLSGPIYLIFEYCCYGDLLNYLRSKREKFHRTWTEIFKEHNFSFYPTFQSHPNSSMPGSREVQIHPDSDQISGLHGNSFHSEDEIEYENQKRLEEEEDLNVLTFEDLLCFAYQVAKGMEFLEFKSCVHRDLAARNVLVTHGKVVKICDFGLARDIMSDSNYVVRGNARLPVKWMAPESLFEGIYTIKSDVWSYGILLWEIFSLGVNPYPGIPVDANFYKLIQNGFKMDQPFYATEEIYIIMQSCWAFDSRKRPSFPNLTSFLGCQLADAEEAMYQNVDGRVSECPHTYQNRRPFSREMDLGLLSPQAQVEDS
Briefly: FLT-3 inhibition assay, radiometric filter-binding. Type of series: biochemical. As for the experimental part: This assay monitors the 33P incorporation into a substrate poly(Glu, Tyr) 4:1 (pE4Y). […] Final substrate concentrations in the assay were 90 μM ATP and 0.5 mg/ml pE4Y (both from Sigma Chemicals, St Louis, Mo.). […] Reactions were carried out at room temperature.
Two assay solutions were prepared. Solution 1 contains 100 mM HEPES (pH 7.5), 10 mM MgCl2, 25 mM NaCl, 1 mg/ml pE4Y and […] (containing 0.3 mCi of [γ-33^P]ATP for each reaction). Solution 2 contains 100 mM HEPES (pH 7.5), 10 mM MgCl2, 25 mM NaCl, 2 mM DTT, 0.02% BSA and 3 nM FLT-3. The assay was run on a 96 well plate by mixing 50 μl each of Solution 1 and […] of the compounds of the present invention. The reaction was initiated with Solution 2. […] All of the reaction volume was then transferred to a filter plate and washed with 5% TCA by a Harvester 9600 from TOMTEC (Hamden, Conn.). The amount of ^33P incorporation into pE4y was analyzed by a Packard Top Count Microplate Scintillation Counter (Meriden, Conn.). The data was fitted using Prism software to get an IC50 or Ki.

The target of series [4] is JAK-2 (Homo sapiens, UniProt O60674). The series is described as follows: JAK2 inhibition assay. Type of series: biochemical. The following applies: 12 μM ATP, 15 μM poly(Glu)4Tyr.
In series [5] the target is N-terminally truncated Abl kinase. Briefly: Abl kinase activity inhibition assay, coupled enzyme. To be noted: read-out: Abl (wild) Ki; 110 μM ATP, 30° C., 21 nM Abl kinase. Format: biochemical. On the procedure: Final concentrations of the components of the coupled enzyme system were 2.5 mM phosphoenolpyruvate, 200 μM NADH, […] pyruvate kinase and 20 μg/ml lactate dehydrogenase.
An assay stock buffer solution was prepared containing all of the reagents listed above with the exception of ATP and the test compound of interest. […] Rates of reaction were obtained using a Molecular Devices Spectramax plate reader (Sunnyvale, Calif.) over 10 min at 30° C. The Ki values were determined from the residual rate data as a function of inhibitor concentration using nonlinear regression (Prism 3.0, Graphpad Software, San Diego, Calif.).

Series [6] deals with T2, Aurora-2 (Aurora A) (Homo sapiens, UniProt O14965).
T2 sequence (O14965 1-403): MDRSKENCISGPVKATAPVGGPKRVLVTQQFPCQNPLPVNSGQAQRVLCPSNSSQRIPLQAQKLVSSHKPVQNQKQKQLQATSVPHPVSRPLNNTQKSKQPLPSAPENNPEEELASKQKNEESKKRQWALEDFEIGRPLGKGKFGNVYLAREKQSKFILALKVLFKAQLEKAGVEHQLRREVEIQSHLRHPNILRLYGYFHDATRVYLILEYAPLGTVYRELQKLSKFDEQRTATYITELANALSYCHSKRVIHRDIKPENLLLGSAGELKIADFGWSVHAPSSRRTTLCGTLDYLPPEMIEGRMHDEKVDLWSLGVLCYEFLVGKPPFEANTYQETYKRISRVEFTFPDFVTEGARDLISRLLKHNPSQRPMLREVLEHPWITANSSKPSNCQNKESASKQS
Briefly: Aurora-2 (Aurora A) inhibition assay, coupled enzyme. Type of series: biochemical. On the procedure:
Assays were carried out in a mixture of 100 mM Hepes (pH7.5), 10 mM MgCl2, 1 mM DTT, 25 mM NaCl, 2.5 mM phosphoenolpyruvate, 300 μM NADH, 30 μg/ml pyruvate kinase and 10 μg/ml lactate dehydrogenase. […] Assays were carried out at 30° C. and in the presence of 40 nM Aurora-2.
An assay stock buffer solution was prepared containing all of the reagents listed above, with the exception of Aurora-2 and the test compound of interest. […] The plate was preincubated for 10 minutes at 30° C. and the reaction initiated by addition of 10 μl of Aurora-2. Initial reaction rates were determined with a Molecular Devices SpectraMax Plus plate reader over a 10 minute time course. IC50 and Ki data were calculated from non-linear regression analysis using the Prism software package (GraphPad Prism version 3.0cx for Macintosh, GraphPad Software, San Diego Calif., USA).

[7] abbreviates: 800 μM ATP, Kemptide, 25° C., read-out: Aurora B Ki.
[8] abbreviates: 400 μM ATP, 570 μM Kemptide, 30° C., 40 nM Aurora-2, read-out: Aurora A Ki.

Read-outs that look alike come from different tables or passages of the source.

Aurora-1 (Aurora B), sequence (Q96GD4 whole entry): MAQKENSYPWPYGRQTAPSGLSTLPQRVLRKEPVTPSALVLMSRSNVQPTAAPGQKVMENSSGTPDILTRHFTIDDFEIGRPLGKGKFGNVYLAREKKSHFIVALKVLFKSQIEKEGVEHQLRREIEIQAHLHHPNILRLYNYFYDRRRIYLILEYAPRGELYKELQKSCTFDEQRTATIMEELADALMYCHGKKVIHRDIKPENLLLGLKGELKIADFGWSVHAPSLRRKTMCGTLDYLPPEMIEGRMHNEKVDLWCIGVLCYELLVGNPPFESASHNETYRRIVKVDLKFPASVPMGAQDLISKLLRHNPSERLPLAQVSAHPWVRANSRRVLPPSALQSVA
JAK-2, sequence (O60674 whole entry, species assumed, the tested form may be a part): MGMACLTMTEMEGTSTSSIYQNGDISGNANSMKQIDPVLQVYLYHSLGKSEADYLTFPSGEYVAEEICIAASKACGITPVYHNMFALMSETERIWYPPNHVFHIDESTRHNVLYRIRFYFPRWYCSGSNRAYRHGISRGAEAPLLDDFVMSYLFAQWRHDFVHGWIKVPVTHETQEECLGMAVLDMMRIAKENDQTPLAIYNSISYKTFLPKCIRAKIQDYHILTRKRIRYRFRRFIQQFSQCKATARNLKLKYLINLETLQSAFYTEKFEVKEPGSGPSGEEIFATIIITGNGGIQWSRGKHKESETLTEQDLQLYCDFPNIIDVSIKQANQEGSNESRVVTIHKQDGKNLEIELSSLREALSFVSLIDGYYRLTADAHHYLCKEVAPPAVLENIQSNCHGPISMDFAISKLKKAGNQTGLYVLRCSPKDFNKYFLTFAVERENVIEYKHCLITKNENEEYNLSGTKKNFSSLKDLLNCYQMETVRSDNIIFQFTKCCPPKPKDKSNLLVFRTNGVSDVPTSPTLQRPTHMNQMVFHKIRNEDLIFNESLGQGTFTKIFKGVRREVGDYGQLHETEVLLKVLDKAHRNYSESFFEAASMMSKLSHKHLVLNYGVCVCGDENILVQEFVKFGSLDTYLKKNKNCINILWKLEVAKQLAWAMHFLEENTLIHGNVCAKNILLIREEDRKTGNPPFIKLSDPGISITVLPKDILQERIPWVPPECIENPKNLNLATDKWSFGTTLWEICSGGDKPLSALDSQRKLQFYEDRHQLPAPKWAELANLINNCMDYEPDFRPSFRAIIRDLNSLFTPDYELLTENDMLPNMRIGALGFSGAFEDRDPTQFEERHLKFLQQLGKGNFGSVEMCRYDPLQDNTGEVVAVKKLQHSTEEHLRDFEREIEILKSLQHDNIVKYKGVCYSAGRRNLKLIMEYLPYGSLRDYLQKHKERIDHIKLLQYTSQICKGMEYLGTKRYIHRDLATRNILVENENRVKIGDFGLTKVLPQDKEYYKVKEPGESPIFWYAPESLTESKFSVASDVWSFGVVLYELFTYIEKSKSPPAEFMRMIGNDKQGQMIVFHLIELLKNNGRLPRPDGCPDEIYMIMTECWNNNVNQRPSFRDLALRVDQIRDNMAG
N-terminally truncated Abl kinase, sequence (P00519 28-1130): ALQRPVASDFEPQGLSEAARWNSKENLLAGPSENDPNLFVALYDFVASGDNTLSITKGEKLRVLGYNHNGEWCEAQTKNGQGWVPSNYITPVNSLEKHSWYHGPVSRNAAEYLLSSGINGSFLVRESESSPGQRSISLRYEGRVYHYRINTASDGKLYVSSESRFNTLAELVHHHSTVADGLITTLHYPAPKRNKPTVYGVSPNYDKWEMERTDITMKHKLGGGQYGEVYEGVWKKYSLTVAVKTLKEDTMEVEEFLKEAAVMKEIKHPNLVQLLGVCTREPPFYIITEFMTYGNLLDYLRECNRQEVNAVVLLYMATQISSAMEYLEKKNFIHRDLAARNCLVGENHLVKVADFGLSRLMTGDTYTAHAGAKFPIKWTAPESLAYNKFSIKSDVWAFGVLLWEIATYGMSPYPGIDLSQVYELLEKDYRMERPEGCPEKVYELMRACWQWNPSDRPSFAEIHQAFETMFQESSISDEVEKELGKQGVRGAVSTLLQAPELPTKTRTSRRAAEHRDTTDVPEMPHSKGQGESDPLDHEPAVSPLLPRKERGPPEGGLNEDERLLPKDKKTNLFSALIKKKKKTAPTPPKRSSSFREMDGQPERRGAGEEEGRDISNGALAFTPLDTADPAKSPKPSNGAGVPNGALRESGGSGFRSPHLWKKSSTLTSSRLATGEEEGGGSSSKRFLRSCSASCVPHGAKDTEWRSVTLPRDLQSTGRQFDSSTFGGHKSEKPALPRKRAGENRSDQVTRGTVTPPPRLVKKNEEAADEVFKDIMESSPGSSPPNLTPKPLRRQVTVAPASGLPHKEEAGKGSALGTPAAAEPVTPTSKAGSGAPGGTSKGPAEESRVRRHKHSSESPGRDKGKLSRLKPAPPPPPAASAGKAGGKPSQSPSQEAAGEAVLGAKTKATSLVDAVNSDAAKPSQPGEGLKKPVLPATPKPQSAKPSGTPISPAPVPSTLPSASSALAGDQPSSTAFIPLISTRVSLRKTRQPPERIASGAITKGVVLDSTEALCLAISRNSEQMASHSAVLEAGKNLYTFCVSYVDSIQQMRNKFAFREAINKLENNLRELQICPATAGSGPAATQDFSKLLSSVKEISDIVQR

In the case of `Cc1cc(Nc2cc(N3CCC3)nc(Sc3ccc(NC(=O)c4cccc(F)c4F)cc3)n2)[nH]n1` [Compound I-7], the Ki in series [1] (setting [7]) is 5.1 nM; in series [3] (90 μM ATP, 0.5 mg/ml pE4Y, room temperature, read-out: FLT-3 Ki), 250 nM; in series [4], 41 nM; in series [5], 35 nM. Moreover, the “Microsomal Stability (% remaining after 30 min.)” value in series [2] came out at 102%. Also, the “Microsomal Stability (% remaining after 60 min.)” value in series [2] is listed as 69%.
Consider `Cc1cc(Nc2cc(N3CCC3)nc(Sc3ccc(NC(=O)c4cccc(Cl)c4Cl)cc3)n2)n[nH]1` [Compound I-9], for which the results for the Ki in series [6] and in series [1] were 0.85 nM and 6.5 nM, respectively. Besides, the “Microsomal Stability (% remaining after 60 min.)” value in series [2] amounted to 69%.
Take `Cc1cc(Nc2cc(N3CCC3)nc(Sc3ccc(NC(=O)c4cc(F)ccc4F)cc3)n2)[nH]n1` [Compound I-10]: the Ki in series [6] (setting [8]) is 1.8 nM; in series [1] (setting [7]), less than 25 nM.
`CCc1cc(Nc2cc(N3CCC3)nc(Sc3ccc(NC(=O)c4ccccc4Cl)cc3)n2)n[nH]1` [Compound I-16]: the figures for the inhibition constant (Ki) in series [6], in series [1] and in series [4] were 0.56 nM, 7.5 nM and 440 nM, respectively. The “Microsomal Stability (% remaining after 30 min.)” value in series [2] amounted to 91%. The “Microsomal Stability (% remaining after 60 min.)” value in series [2] came out at 63%.
For `COc1cccc(C(=O)Nc2ccc(Sc3nc(Nc4cc(C)n[nH]4)cc(N4CCC4)n3)cc2)c1` [Compound I-18], the Ki in series [6] (setting [8]) was found to be 0.6 nM; in series [1] (setting [7]), 8 nM; in series [4] it was 63 nM. For the same compound, the “Microsomal Stability (% remaining after 30 min.)” value in series [2] is 89%. Also, the “Microsomal Stability (% remaining after 60 min.)” value in series [2] is on record as 58%.
For the compound `CSc1ccccc1C(=O)Nc1ccc(Sc2nc(Nc3cc(C)[nH]n3)cc(N3CCC3)n2)cc1` [Compound I-23], the Ki was found to be 1.4 nM in series [6] and 6 nM in series [1] (setting [7]).
Consider `Cc1cc(Nc2cc(N3CCC3)nc(Sc3ccc(NC(=O)c4ccccc4Cl)nc3)n2)[nH]n1` [Compound I-24], for which the Ki in series [6] (setting [8]) came to 1 nM; in series [1] (setting [7]), 18 nM; in series [3] it was 700 nM; in series [4], 660 nM.
